According to US20250064093A1, “FERMENTED PH-INDEPENDENT SOLUTION SPOILAGE CONTROL IN FOOD SYSTEMS” (Third Wave Bioactives, LLC, priority 2023, published 2025):

Tested on: yeast
Experiment: Natural spoilage of chicken salad, growth of yeast
Assay type: cell-based
Details: 500 ppm Nisin
Method: The chicken salad was freshly made and allowed to spoil naturally over time. To prevent the product from being spoiled by Lactic Acid Bacteria (LAB), which can cause an accumulation of lactic acid reducing the pH over time, Nisin preparation (500 ppm) was added. Treatments included a no preservative Control, 500 ppm Nisin, 0.1% Potassium sorbate +500 ppm Nisin (Ps+N), and 1% Bacillus fermentate +500 ppm Nisin (BA+N). Usage rates were in the range of typical inclusion in finished foods.

nisin
yeast counts compared to Bacillus-treated samples: rose much higher
